Data as given in PMC7180948, “New Insights into 4-Anilinoquinazolines as Inhibitors of Cardiac Troponin I–Interacting Kinase (TNNi3K)” (Molecules, 2020).

Tests used:
Experiment in all cases: biochemical
Set-up in all cases: KINOMEscan competition binding panel (Eurofins DiscoverX), single concentration, % inhibition
Details in all cases: read-out: 7 at 1 µM % inhibition
[1] = molecular target: T1, ABL1-phosphorylated (Homo sapiens, UniProt P00519)
T1 construct: phosphorylated
Outline: (§1)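 Compounds were submitted at 1 µM to a KINOMEscan assay covering more than 400 human kinases. The screen served to define the selectivity profile.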

[2] = molecular target: T2, AMPK-alpha1 (Homo sapiens, UniProt Q13131)
T2 construct: gene PRKAA1
Outline: as §1

[3] = molecular target: T3, ASK2 (Homo sapiens, UniProt O95382)
T3 construct: gene MAP3K6
T3 sequence (O95382 whole entry): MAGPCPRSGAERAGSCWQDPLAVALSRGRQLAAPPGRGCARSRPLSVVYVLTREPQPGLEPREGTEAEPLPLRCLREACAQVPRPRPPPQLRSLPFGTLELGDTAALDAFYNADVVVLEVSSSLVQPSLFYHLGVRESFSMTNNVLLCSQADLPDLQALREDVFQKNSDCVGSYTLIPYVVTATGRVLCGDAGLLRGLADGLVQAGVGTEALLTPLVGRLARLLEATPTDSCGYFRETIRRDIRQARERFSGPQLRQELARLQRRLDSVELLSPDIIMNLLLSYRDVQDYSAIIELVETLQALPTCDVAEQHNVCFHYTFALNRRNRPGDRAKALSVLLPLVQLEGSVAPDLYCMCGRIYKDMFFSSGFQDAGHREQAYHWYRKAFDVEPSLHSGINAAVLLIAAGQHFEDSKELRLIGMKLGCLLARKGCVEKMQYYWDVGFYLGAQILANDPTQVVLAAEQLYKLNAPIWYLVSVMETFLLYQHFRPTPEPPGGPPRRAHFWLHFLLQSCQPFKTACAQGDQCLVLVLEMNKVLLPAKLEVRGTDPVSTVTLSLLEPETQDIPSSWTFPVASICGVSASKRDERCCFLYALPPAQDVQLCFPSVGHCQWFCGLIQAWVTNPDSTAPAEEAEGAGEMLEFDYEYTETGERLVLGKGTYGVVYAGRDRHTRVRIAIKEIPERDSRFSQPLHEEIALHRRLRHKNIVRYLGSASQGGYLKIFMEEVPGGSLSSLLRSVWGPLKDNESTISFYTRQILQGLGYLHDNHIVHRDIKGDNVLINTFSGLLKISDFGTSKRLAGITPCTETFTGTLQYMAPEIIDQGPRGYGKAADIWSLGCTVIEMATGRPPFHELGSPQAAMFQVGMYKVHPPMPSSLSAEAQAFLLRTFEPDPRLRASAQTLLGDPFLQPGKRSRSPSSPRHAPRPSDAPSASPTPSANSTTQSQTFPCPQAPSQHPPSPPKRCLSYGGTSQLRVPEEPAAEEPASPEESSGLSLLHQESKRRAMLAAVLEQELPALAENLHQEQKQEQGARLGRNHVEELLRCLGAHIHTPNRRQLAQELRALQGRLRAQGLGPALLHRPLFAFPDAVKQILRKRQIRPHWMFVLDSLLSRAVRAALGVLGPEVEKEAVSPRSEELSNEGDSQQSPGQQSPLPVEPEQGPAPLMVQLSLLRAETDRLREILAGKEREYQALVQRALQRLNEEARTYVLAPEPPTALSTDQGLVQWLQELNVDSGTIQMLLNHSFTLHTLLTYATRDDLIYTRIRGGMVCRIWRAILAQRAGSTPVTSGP
Outline: as §1

[4] = molecular target: AURKC (Homo sapiens, UniProt Q9UQB9)
Chain of AURKC (Q9UQB9 whole entry): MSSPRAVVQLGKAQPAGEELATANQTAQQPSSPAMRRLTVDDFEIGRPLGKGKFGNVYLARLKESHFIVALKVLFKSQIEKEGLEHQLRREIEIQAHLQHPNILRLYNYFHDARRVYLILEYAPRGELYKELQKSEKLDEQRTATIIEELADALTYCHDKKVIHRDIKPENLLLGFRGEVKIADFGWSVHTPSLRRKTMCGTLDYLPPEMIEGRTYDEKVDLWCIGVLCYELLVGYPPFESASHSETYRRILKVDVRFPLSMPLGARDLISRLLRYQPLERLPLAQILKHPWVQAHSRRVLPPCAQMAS
Outline: as §1

[5] = molecular target: BMPR1B (Homo sapiens, UniProt O00238)
Outline: as §1

[6] = molecular target: BRAF(V600E) (Homo sapiens, UniProt P15056, V600E)
Outline: as §1

[7] = molecular target: CAMK1G (Homo sapiens, UniProt Q96NX5)
Outline: as §1

[8] = molecular target: CAMKK2 (Homo sapiens, UniProt Q96RR4)
Outline: as §1

[9] = molecular target: CSK (Homo sapiens, UniProt P41240)
Outline: as §1

[10] = molecular target: DDR2 (Homo sapiens, UniProt Q16832)
Chain of DDR2 (Q16832 whole entry): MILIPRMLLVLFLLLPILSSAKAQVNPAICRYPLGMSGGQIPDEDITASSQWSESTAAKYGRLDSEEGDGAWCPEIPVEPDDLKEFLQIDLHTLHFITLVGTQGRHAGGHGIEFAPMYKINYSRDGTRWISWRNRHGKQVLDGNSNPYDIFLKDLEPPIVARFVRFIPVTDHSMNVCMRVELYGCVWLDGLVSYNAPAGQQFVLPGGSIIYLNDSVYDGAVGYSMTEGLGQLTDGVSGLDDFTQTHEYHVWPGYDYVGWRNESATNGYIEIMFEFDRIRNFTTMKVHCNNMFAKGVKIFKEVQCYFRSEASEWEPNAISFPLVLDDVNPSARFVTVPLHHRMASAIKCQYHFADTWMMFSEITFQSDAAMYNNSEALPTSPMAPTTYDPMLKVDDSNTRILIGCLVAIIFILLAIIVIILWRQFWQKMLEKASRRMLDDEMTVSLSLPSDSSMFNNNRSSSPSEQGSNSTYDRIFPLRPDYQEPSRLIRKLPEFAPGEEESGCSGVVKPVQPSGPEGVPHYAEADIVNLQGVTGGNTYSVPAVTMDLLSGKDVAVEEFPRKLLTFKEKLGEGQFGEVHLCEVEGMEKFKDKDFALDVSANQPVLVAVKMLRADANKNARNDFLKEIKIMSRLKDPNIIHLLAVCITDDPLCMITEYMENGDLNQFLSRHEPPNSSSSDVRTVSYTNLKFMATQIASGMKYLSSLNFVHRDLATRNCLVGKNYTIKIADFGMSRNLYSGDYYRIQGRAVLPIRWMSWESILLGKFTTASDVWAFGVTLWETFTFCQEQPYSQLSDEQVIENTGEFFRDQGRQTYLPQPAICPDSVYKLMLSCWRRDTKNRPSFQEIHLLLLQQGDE
Outline: as §1

[11] = molecular target: DMPK (Homo sapiens, UniProt Q09013)
Chain of DMPK (Q09013 whole entry): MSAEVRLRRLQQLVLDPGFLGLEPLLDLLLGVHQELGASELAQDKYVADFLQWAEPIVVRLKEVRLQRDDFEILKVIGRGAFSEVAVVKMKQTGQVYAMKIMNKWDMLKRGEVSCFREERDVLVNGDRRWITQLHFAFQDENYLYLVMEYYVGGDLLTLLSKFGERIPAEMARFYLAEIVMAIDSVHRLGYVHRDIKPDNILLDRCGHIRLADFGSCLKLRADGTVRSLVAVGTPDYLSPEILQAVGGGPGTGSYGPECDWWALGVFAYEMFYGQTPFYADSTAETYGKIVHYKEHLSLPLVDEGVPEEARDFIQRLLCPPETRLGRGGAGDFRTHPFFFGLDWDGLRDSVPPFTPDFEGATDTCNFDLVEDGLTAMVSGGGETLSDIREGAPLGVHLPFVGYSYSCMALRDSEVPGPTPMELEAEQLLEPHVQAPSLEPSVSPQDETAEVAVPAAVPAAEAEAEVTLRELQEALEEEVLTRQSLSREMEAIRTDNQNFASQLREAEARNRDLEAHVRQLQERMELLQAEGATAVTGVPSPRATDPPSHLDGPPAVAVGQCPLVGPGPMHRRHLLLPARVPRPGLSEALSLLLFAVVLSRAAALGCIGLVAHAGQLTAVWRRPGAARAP
Outline: as §1

[12] = molecular target: T4, DRAK2 (Homo sapiens, UniProt O94768)
T4 construct: gene STK17B
Outline: as §1

[13] = molecular target: FLT3(D835V) (Homo sapiens, UniProt P36888, D835V)
Outline: as §1

[14] = molecular target: KIT(V559D) (Homo sapiens, UniProt P10721, V559D)
Outline: as §1

[15] = molecular target: MAP3K1 (Homo sapiens, UniProt Q13233)
Outline: as §1

[16] = molecular target: MAP4K3 (Homo sapiens, UniProt Q8IVH8)
Outline: as §1

[17] = molecular target: T5, MEK1 (Homo sapiens, UniProt Q02750)
T5 construct: gene MAP2K1
Outline: as §1

[18] = molecular target: T6, MLK2 (Homo sapiens, UniProt Q02779)
T6 construct: gene MAP3K10
Outline: as §1

[19] = molecular target: MTOR (Homo sapiens, UniProt P42345)
Outline: as §1

[20] = molecular target: PIK3CA (Homo sapiens, UniProt P42336)
Outline: as §1

[21] = molecular target: PLK2 (Homo sapiens, UniProt Q9NYY3)
Outline: as §1

[22] = molecular target: PLK3 (Homo sapiens, UniProt Q9H4B4)
Chain of PLK3 (Q9H4B4 whole entry): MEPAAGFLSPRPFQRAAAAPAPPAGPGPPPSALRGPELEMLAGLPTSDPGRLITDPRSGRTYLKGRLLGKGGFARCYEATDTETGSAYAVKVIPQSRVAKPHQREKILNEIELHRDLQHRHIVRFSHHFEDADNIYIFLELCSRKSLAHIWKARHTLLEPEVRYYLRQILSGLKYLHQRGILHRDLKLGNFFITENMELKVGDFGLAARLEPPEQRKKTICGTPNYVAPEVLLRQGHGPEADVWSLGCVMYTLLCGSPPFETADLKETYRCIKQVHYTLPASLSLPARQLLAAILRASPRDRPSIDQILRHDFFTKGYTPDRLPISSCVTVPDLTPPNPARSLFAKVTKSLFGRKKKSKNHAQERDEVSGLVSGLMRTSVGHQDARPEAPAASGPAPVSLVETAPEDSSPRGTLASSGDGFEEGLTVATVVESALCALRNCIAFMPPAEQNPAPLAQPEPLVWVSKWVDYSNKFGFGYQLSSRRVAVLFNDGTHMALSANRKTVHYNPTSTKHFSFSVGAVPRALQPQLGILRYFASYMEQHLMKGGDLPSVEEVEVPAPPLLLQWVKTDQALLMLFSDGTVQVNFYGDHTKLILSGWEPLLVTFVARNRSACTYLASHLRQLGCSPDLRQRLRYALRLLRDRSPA
Outline: as §1

[23] = molecular target: STK16 (Homo sapiens, UniProt O75716)
Outline: as §1

[24] = molecular target: TAOK2 (Homo sapiens, UniProt Q9UL54)
Chain of TAOK2 (Q9UL54 whole entry): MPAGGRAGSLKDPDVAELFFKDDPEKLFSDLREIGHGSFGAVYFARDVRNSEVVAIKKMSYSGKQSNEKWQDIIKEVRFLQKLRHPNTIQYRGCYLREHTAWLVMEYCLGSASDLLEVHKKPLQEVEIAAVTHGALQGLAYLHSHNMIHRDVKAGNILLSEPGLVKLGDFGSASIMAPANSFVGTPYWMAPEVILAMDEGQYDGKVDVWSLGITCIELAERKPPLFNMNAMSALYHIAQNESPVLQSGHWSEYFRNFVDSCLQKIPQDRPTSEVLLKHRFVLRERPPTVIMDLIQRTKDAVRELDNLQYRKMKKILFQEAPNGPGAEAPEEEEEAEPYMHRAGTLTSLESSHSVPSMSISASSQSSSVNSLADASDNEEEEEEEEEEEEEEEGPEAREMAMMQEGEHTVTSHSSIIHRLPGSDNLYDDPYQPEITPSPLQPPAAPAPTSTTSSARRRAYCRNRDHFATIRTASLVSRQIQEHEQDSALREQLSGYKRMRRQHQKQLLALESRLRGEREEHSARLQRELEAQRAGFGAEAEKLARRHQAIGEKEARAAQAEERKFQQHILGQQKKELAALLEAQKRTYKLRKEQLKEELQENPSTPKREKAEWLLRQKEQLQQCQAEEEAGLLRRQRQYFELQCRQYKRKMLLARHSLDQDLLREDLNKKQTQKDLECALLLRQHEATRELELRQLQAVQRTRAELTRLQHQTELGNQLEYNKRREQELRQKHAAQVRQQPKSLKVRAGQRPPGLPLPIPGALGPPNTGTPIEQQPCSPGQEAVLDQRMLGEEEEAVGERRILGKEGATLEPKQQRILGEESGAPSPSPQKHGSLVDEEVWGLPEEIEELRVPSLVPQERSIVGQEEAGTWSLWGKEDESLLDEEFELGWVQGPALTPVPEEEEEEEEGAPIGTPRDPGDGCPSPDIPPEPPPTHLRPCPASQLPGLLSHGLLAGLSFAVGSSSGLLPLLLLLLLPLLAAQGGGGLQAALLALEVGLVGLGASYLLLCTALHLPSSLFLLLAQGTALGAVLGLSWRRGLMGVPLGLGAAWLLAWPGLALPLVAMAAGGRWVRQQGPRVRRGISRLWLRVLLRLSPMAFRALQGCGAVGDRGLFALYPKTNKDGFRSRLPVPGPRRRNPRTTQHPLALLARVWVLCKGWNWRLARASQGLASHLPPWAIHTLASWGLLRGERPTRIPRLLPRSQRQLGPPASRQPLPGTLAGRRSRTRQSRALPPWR
Outline: as §1

Compound: CNS(=O)(=O)c1ccc(N(C)C)c(Nc2ncnc3cc(OC)c(OC)cc23)c1 [compound 7, 3-((6,7-dimethoxyquinazolin-4-yl)amino)-4-(dimethylamino)-N-methylbenzenesulfonamide]
- inhibition at 1 µM [1]: 26%
- inhibition at 1 µM [2]: 0%
- inhibition at 1 µM [3]: 30%
- inhibition at 1 µM [4]: 0%
- inhibition at 1 µM [5]: 34%
- inhibition at 1 µM [6]: 83%
- inhibition at 1 µM [7]: 0%
- inhibition at 1 µM [8]: 0%
- inhibition at 1 µM [9]: 0%
- inhibition at 1 µM [10]: 41%
- inhibition at 1 µM [11]: 0%
- inhibition at 1 µM [12]: 0%
- inhibition at 1 µM [13]: 91.8%
- inhibition at 1 µM [14]: 28%
- inhibition at 1 µM [15]: 0%
- inhibition at 1 µM [16]: 0%
- inhibition at 1 µM [17]: 35%
- inhibition at 1 µM [18]: 15%
- inhibition at 1 µM [19]: 0%
- inhibition at 1 µM [20]: 51%
- inhibition at 1 µM [21]: 13%
- inhibition at 1 µM [22]: 0%
- inhibition at 1 µM [23]: 0%
- inhibition at 1 µM [24]: 20%
